Test results published in patent US20070128217A1 (priority 2003, published 2007).

What was measured:
[1] = test system: rabbit serum obtained by immunizing a rabbit with the SARS-CoV strain Frankfurt 1; assay type: binding; parameters: Binding of a rabbit serum to linear peptides / Binding of a rabbit serum to looped peptides / Rabbit serum linear peptides / Rabbit serum looped peptides / Binding of a rabbit serum to linear peptides of protein N of SARS-CoV Urbani (Rabbit serum linear peptides) / Binding of a rabbit serum to looped/cyclic peptides of protein N of SARS-CoV Urbani (Rabbit serum looped peptides): unit not given here
[2] = test system: antibodies in sera from SARS patients (sera 1a, 1b, 2, 6, 37, 62, London, SARS-yellow, SARS-green); assay type: binding, human; parameters: Binding of serum 6 to linear peptides of protein X1 of SARS-CoV Urbani / Binding of serum 37 to linear peptides of protein X1 of SARS-CoV Urbani / Binding of serum 6 to looped/cyclic peptide (PEPSCAN-ELISA) / Binding of serum 37 to looped/cyclic peptide (PEPSCAN-ELISA) / Binding of serum 37 to looped/cyclic peptides of protein X1 of SARS-CoV Urbani / Binding of serum 6 to linear peptides of protein X2 / Binding of serum 37 to linear peptides of protein X2 / Binding of serum 37 to looped/cyclic peptides of protein X2 of SARS-CoV Urbani / Binding of serum 6 to linear peptides of protein M of SARS-CoV Urbani / Binding of serum 37 to linear peptides of protein M of SARS-CoV Urbani / Binding of serum 6 to looped/cyclic peptides of protein M of SARS-CoV Urbani / Binding of serum 37 to looped/cyclic peptides of protein M of SARS-CoV Urbani / Binding of serum 6 to linear peptides of protein X3 of SARS-CoV Urbani / Binding of serum 37 to linear peptides of protein X3 of SARS-CoV Urbani / Binding of serum 37 to looped/cyclic peptides of protein X3 of SARS-CoV Urbani / Binding of serum 6 to linear peptides of protein X4 of SARS-CoV Urbani / Binding of serum 37 to linear peptides of protein X4 of SARS-CoV Urbani / Binding of serum 37 to looped/cyclic peptides of protein X4 of SARS-CoV Urbani / Binding of serum 6 to linear peptides of protein X5 of SARS-CoV Urbani / Binding of serum 37 to linear peptides of protein X5 of SARS-CoV Urbani / Binding of serum 37 to looped/cyclic peptides of protein X5 of SARS-CoV Urbani / Binding of serum 6 to linear peptides of protein N of SARS-CoV Urbani / Binding of serum 37 to linear peptides of protein N of SARS-CoV Urbani / Binding of serum 6 to linear peptide (PEPSCAN-ELISA) / Binding of serum 1a to looped/cyclic peptides of protein N of SARS-CoV Urbani / Binding of serum 1b to looped/cyclic peptides of protein N of SARS-CoV Urbani / Binding of serum 2 to looped/cyclic peptides of protein N of SARS-CoV Urbani / Binding of serum 6 to looped/cyclic peptides of protein N of SARS-CoV Urbani / Binding of serum 37 to looped/cyclic peptides of protein N of SARS-CoV Urbani / Binding of serum 62 to looped/cyclic peptides of protein N of SARS-CoV Urbani / Binding of serum London to looped/cyclic peptides of protein N of SARS-CoV Urbani / Binding of serum SARS-green to looped/cyclic peptides of protein N of SARS-CoV Urbani: unit not given here
[3] = test system: control sera (pooled serum of ten healthy LUMC hospital workers; commercial negative donor pooled serum from the Dutch bloodbank); assay type: binding, human; parameters: Binding of Control serum LUMC to linear peptides / Binding of Control serum Blood-bank to linear peptides / Binding of Control serum LUMC to looped peptides / Binding of Control Serum Blood-Bank to Looped peptides / Binding of Control serum LUMC to linear peptides of the protein M of SARS-CoV Urbani / Binding of Control serum Blood-bank to linear peptides of the protein M of SARS-CoV Urbani / Binding of Control serum LUMC to looped peptides of the protein M of SARS-CoV Urbani / Binding of Control Serum Blood-Bank to Looped peptides of the protein M of SARS-CoV Urbani: unit not given here

Sequence: CFVLAAVYRINWVTG
- Rabbit serum linear peptides [1]: 0.2
- Rabbit serum looped peptides [1]: 0.1
- Binding of serum 1a to linear peptides of protein M of SARS-CoV Urbani [2]: 0.8
- Binding of serum 1a to looped/cyclic peptides of protein M of SARS-CoV Urbani [2]: 0.6
- Binding of serum 1b to linear peptides of protein M of SARS-CoV Urbani [2]: 0.6
- Binding of serum 1b to looped/cyclic peptides of protein M of SARS-CoV Urbani [2]: 0.6
- Binding of serum 2 to linear peptides of protein M of SARS-CoV Urbani [2]: 0.6
- Binding of serum 2 to looped/cyclic peptides of protein M of SARS-CoV Urbani [2]: 0.5
- Binding of serum 6 to linear peptides of protein M of SARS-CoV Urbani [2]: 0.6
- Binding of serum 6 to looped/cyclic peptides of protein M of SARS-CoV Urbani [2]: 0.8
- Binding of serum 37 to linear peptides of protein M of SARS-CoV Urbani [2]: 0.4
- Binding of serum 37 to looped/cyclic peptides of protein M of SARS-CoV Urbani [2]: 0.6
- Binding of serum 62 to linear peptides of protein M of SARS-CoV Urbani [2]: 0.4
- Binding of serum 62 to looped/cyclic peptides of protein M of SARS-CoV Urbani [2]: 0.7
- Binding of serum London to linear peptides of protein M of SARS-CoV Urbani [2]: 0.4
- Binding of serum London to looped/cyclic peptides of protein M of SARS-CoV Urbani [2]: 0.2
- Binding of serum SARS-green to linear peptides of protein M of SARS-CoV Urbani [2]: 0.5
- Binding of serum SARS-green to looped/cyclic peptides of protein M of SARS-CoV Urbani [2]: 0.3
- Binding of serum SARS-yellow to linear peptides of protein M of SARS-CoV Urbani [2]: 0.2
- Binding of serum SARS-yellow to looped/cyclic peptides of protein M of SARS-CoV Urbani [2]: 0.4
- Binding of Control Serum Blood-Bank to Looped peptides of the protein M of SARS-CoV Urbani [3]: 0.6
- Binding of Control serum Blood-bank to linear peptides of the protein M of SARS-CoV Urbani [3]: 0.7
- Binding of Control serum LUMC to linear peptides of the protein M of SARS-CoV Urbani [3]: 0.6
- Binding of Control serum LUMC to looped peptides of the protein M of SARS-CoV Urbani [3]: 0.8

Sequence: CIPYNSVTDTIVVTE
- Binding of a rabbit serum to linear peptides [1]: 0.1
- Binding of a rabbit serum to looped peptides [1]: 0.4
- Binding of serum 1a to linear peptides of protein X1 of SARS-CoV Urbani [2]: 0.7
- Binding of serum 1b to linear peptides of protein X1 of SARS-CoV Urbani [2]: 0.6
- Binding of serum 1b to looped/cyclic peptides of protein X1 of SARS-CoV Urbani [2]: 0.4
- Binding of serum 2 to linear peptides of protein X1 of SARS-CoV Urbani [2]: 0.5
- Binding of serum 2 to looped/cyclic peptides of protein X1 of SARS-CoV Urbani [2]: 0.5
- Binding of serum 6 to linear peptides of protein X1 of SARS-CoV Urbani [2]: 0.5
- Binding of serum 6 to looped/cyclic peptides of protein X1 of SARS-CoV Urbani [2]: 0.2
- Binding of serum 37 to linear peptides of protein X1 of SARS-CoV Urbani [2]: 0.7
- Binding of serum 37 to looped/cyclic peptides of protein X1 of SARS-CoV Urbani [2]: 0.6
- Binding of serum 62 to linear peptides of protein X1 of SARS-CoV Urbani [2]: 0.6
- Binding of serum 62 to looped/cyclic peptides of protein X1 of SARS-CoV Urbani [2]: 0.5
- Binding of serum London to linear peptides of protein X1 of SARS-CoV Urbani [2]: 0.3
- Binding of serum London to looped/cyclic peptides of protein X1 of SARS-CoV Urbani [2]: 0.2
- Binding of serum SARS-green to linear peptides of protein X1 of SARS-CoV Urbani [2]: 0.3
- Binding of serum SARS-green to looped/cyclic peptides of protein X1 of SARS-CoV Urbani [2]: 0.3
- Binding of serum SARS-yellow to linear peptides of protein X1 of SARS-CoV Urbani [2]: 0.5
- Binding of serum SARS-yellow to looped/cyclic peptides of protein X1 of SARS-CoV Urbani [2]: 0.4
- Binding of Control Serum Blood-Bank to Looped peptides [3]: 0.6
- Binding of Control serum Blood-bank to linear peptides [3]: 0.5
- Binding of Control serum LUMC to linear peptides [3]: 0.6
- Binding of Control serum LUMC to looped peptides [3]: 0.5

Sequence: CKHKKVSTNLCTHSF
- Binding of a rabbit serum to linear peptides [1]: 0.3
- Binding of a rabbit serum to looped peptides [1]: 0.5
- Binding of serum 1a to looped/cyclic peptides of protein X2 of SARS-CoV Urbani [2]: 0.7
- Binding of serum 1b to looped/cyclic peptides of protein X2 of SARS-CoV Urbani [2]: 0.7
- Binding of serum 2 to looped/cyclic peptides of protein X2 of SARS-CoV Urbani [2]: 0.4
- Binding of serum 6 to looped/cyclic peptides of protein X2 of SARS-CoV Urbani [2]: 0.3
- Binding of serum 37 to looped/cyclic peptides of protein X2 of SARS-CoV Urbani [2]: 0.6
- Binding of serum 62 to looped/cyclic peptides of protein X2 of SARS-CoV Urbani [2]: 0.5
- Binding of serum London to looped/cyclic peptides of protein X2 of SARS-CoV Urbani [2]: 0.3
- Binding of serum SARS-green to looped/cyclic peptides of protein X2 of SARS-CoV Urbani [2]: 0.4
- Binding of serum SARS-yellow to looped/cyclic peptides of protein X2 of SARS-CoV Urbani [2]: 0.9
- Recognition of the peptide by sera of SARS-CoV infected individuals, and form (linear, looped/cyclic) in which it is recognized [2]: recognized in linear form
- Binding of Control Serum Blood-Bank to Looped peptides [3]: 0.1
- Binding of Control serum Blood-bank to linear peptides [3]: 0.8
- Binding of Control serum LUMC to linear peptides [3]: 1.0
- Binding of Control serum LUMC to looped peptides [3]: 0.4
